Laboratory results from US12612412B2, “Antiviral heterocyclic compounds” (Enanta Pharmaceuticals, Inc., priority 2021, dated 2026).
Like-named read-outs stand apart in the source and are kept apart here.

Experiments:
[1] = system: genotype A, "Long" strain RSV; test: RSV-A assay (CPE protection in Hep-2 cells, ATPlite readout); format: cell-based, Human respiratory syncytial virus (HRSV); conditions: human respiratory syncytial virus, MOI 0.1, CPE protection
Outline: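 In this cytopathic-effect protection format, infected Hep-2 cultures (MOI 0.1) are exposed to compound for 5 days. Surviving cell ATP is quantified with ATPlite, and EC50 is determined.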

[2] = system: HMPV clinical isolate TN/1501/A1; test: HMPV antiviral assay Method-B (clinical isolate TN/1501/A1 in LLC-MK2 cells, ATP-Lite readout); format: cell-based, Human metapneumovirus (HMPV); conditions: human metapneumovirus, LLC-MK2, 144 h, hMPV WT1501 (clinical isolate TN/1501/A1), 6 days
Outline: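 LLC-MK2 cells infected in suspension with TN/1501/A1 at MOI 0.014 in serum-free medium with 2 μg/mL TPCK-trypsin (final), incubated 6 days at 37° C. Compounds tested in duplicate, 10-point 3-fold dilutions from 10 μM. Cell health read by ATP-Lite luminescence, normalised to virus-only and cells-only controls; EC50 by four-parameter logistic fit.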

[3] = RSV-A Long strain, read-out: Human RSV-A (“Long”) EC50
[4] = genotype A “Long” strain RSV, read-out: Human RSV-A (“Long”)

Row | SMILES | EC50 [1, 3] | EC50 [2] | EC50 [1, 4]
1 | COc1cc(C(=O)NC[C@](O)(c2cc3c(c(-c4cc(F)c(F)cc4F)n2)OC[C@]3(C)C(N)=O)C2CC2)cc2cc(Cl)c(C)nc12 [Example 1151] | < 200 nM | < 500 nM | 
2 | COc1cc(C(=O)NC[C@](O)(c2cc3c(c(-c4cc(Cl)c(F)cc4F)n2)OC[C@]3(C)C(N)=O)C2(F)CC2)cc2cn(C3CC3)nc12 [Example 758] |  | < 500 nM | < 200 nM
3 | COc1cc(C(=O)NC[C@](O)(c2cc3c(c(-c4ccc5c(c4)OC(F)(F)O5)n2)OC[C@]3(C)C(N)=O)C2CC2)cc2cc(C)c(Cl)nc12 [Example 1074] | < 200 nM | < 500 nM | 
4 | COc1cc(C(=O)NC[C@](O)(c2cc3c(c(-c4ccc(F)cc4F)n2)OC[C@]3(C)C(N)=O)C(F)(F)F)cc2cn(C3CC3)nc12 [Example 901] | < 200 nM | < 500 nM | 
5 | C[C@]1(C(N)=O)COc2c1cc([C@@](O)(CNC(=O)c1cc(OC3CC3)n3nc(C4CC4)cc3c1)C(F)(F)F)nc2-c1ccc(F)c(F)c1F [Example 508] |  | < 500 nM | < 200 nM
6 | COc1cc(C(=O)NC[C@](O)(c2cc3c(c(-c4ccc(F)cc4)n2)OC[C@]3(C)C(N)=O)C2CC2)cc2cc(C)nnc12 [Example 762] |  | < 500 nM | < 200 nM
7 | Cc1cnc2c(OC(F)F)cc(C(=O)NC[C@](O)(c3cc4c(c(-c5ccc(F)c(Cl)c5F)n3)OC[C@]4(C)C(N)=O)C3CC3)cc2c1 [Example 558] |  | < 500 nM | < 200 nM
8 | COc1cc(C(=O)NC[C@](O)(c2cc3c(c(-c4cc(Cl)c(F)cc4F)n2)OC[C@]3(C)C(N)=O)C2CC2)cc2cn(C3(F)CC3)nc12 [Example 663] |  | < 500 nM | < 200 nM
9 | COc1cc(C(=O)NC[C@](O)(c2cc3c(c(-c4cc(Cl)c(F)c(Cl)c4)n2)OC[C@]3(C)C(N)=O)C(F)(F)F)cc2cn(C3CC3)nc12 [Example 669] |  | > 500 nM | < 200 nM
10 | Cc1cnc2c(Cl)cc(C(=O)NC[C@](O)(c3cc4c(c(-c5ccc(F)c(F)c5F)n3)OC[C@]4(C)C(N)=O)C(F)(F)F)cc2c1 [Example 513] |  | < 500 nM | < 200 nM
11 | COc1cc(C(=O)NC[C@](O)(c2cc3c(c(-c4ccc5c(c4)OC(F)(F)O5)n2)OC[C@]3(C)C(N)=O)C(F)(F)F)cn2cc(C3CC3)nc12 [Example 639] |  | < 500 nM | < 200 nM
12 | COc1cc(C(=O)NC[C@@](O)(c2cc3c(c(-c4ccc(F)c(Br)c4F)n2)OC[C@]3(C)C(N)=O)C(F)(F)F)cc2cn(C3CC3)nc12 [Example 955] | < 200 nM | > 500 nM | 
13 | C[C@]1(C(N)=O)COc2c(-c3ccc4c(c3)OC(F)(F)O4)nc([C@@](O)(CNC(=O)c3cc(Cl)c4nn(C5CC5)cc4c3)C3CC3)c(F)c21 [Example 858] | < 200 nM | < 500 nM | 
14 | COc1cc(C(=O)NC[C@](O)(c2cc3c(c(-c4ccc(F)c(Cl)c4)n2)OC[C@]3(C(N)=O)C(F)F)C2CC2)cc2cn(C3CC3)nc12 [Example 1024] | > 200 nM | > 500 nM | 
15 | COc1ncc2cc(C(=O)NC[C@](O)(c3cc4c(c(-c5ccc(F)cc5)n3)OC[C@]4(C)C(N)=O)C3CC3)cc(OC)c2n1 [Example 1144] | < 200 nM | > 500 nM | 
16 | C[C@]1(C(N)=O)COc2c1cc([C@@](O)(CNC(=O)c1cc(F)c3nn(C4(F)CC4)cc3c1)C(F)(F)F)nc2-c1ccc(F)cc1 [Example 833] | < 200 nM | > 500 nM | 

Row | SMILES | EC50 [1, 3] | EC50 [2] | EC50 [1, 4]
17 | COc1cc(C(=O)NC[C@](O)(c2cc3c(c(-c4c(F)cc(F)cc4Cl)n2)OC[C@]3(C)C(N)=O)C(F)(F)F)cc2cn(C3CC3)nc12 [Example 1235] | < 200 nM | < 500 nM | 
18 | Cc1nc2c(OC3CC3)cc(C(=O)NC[C@](O)(c3cc4c(c(-c5ccc(F)cc5)n3)OC[C@]4(C)C(N)=O)C3CC3)cc2cc1Cl [Example 637] |  | < 500 nM | < 200 nM
19 | COc1cc(C(=O)NC[C@](O)(c2cc3c(c(-c4ccc(F)c(C(F)(F)F)c4)n2)OC[C@]3(C)C(N)=O)C2(F)CC2)cc2cn(C3CC3)nc12 [Example 749] |  | < 500 nM | < 200 nM
20 | Cc1cnc2c(OC(F)(F)F)cc(C(=O)NC[C@](O)(c3cc4c(c(-c5ccc6c(c5)OC(F)(F)O6)n3)OC[C@]4(C)C(N)=O)C3CC3)cc2c1 [Example 542] |  | < 500 nM | < 200 nM
21 | COc1cc(C(=O)NC[C@](O)(c2cc3c(c(-c4ccc(C(F)(F)F)s4)n2)OC[C@]3(C)C(N)=O)C(F)(F)F)cc2cn(C3CC3)nc12 [Example 994] | < 200 nM | < 500 nM | 
22 | COc1ccc(-c2nc([C@@](O)(CNC(=O)c3cc(OC)c4nn(C5CC5)cc4c3)C(F)(F)F)cc3c2OC[C@]3(C)C(N)=O)cc1Cl [Example 933] | < 200 nM | > 500 nM | 
23 | COc1cc(C(=O)NC[C@](O)(c2cc3c(c(-c4cc(Cl)ccc4F)n2)OC[C@]3(C)C(N)=O)C(F)(F)F)cc2cn(C3CC3)nc12 [Example 990] | < 200 nM | < 500 nM | 
24 | Cc1cnc2c(Cl)cc(C(=O)NC[C@](O)(c3cc4c(c(-c5ccc(F)c(C(F)(F)F)c5)n3)OC[C@]4(C)C(N)=O)C3CC3)cc2c1 [Example 1102] | < 200 nM | < 500 nM | 
25 | COc1cc(C(=O)NC[C@](O)(c2cc3c(c(-c4ccc(F)cc4)n2)OC[C@]3(CF)C(N)=O)C2CC2)cc2cn(C(F)F)nc12 [Example 1062] | < 200 nM | < 500 nM | 
26 | COc1cc(C(=O)NC[C@](O)(c2cc3c(c(-c4ccc5ccccc5c4)n2)OC[C@]3(C)C(N)=O)C(F)(F)F)cc2cn(C3CC3)nc12 [Example 965] | > 200 nM | > 500 nM | 
27 | COc1cc(C(=O)NC[C@](O)(c2cc3c(c(-c4cc(Br)c(F)cc4F)n2)OC[C@]3(C)C(N)=O)C2CC2)cc2cn(C3CC3)nc12 [Example 1088] | < 200 nM | < 500 nM | 
28 | COc1cc(C(=O)NC[C@](O)(c2cc3c(c(-c4cccc(Cl)c4)n2)OC[C@]3(C)C(N)=O)C(F)(F)F)cc2cn(C3CC3)nc12 [Example 975] | < 200 nM | < 500 nM | 
29 | Cc1cnc2c(OC(F)F)cc(C(=O)NC[C@](O)(c3cc4c(c(-c5ccc(F)c(Cl)c5)n3)OC[C@]4(C)C(N)=O)C3(F)CC3)cc2c1 [Example 715] |  | < 500 nM | < 200 nM
30 | COc1cc(C(=O)NC[C@](O)(c2cc3c(c(-c4cc(F)c(F)c(Cl)c4)n2)OC[C@]3(C)C(N)=O)C(F)(F)F)cc2cn(C(F)F)nc12 [Example 783] |  | < 500 nM | < 200 nM
31 | COc1cc(-c2nc([C@@](O)(CNC(=O)c3cc(OC)c4nn(C5CC5)cc4c3)C(F)(F)F)cc3c2OC[C@]3(C)C(N)=O)cc2cn(C(F)F)nc12 [Example 942] | > 200 nM | > 500 nM | 

Second part, the compound after the results:

Row | EC50 [1, 3] | EC50 [2] | EC50 [1, 4] | SMILES
32 | < 200 nM | > 500 nM |  | COc1cc(C(=O)NC[C@](O)(c2cc3c(c(-c4ccc(F)cc4)n2)OC[C@]3(C)C(N)=O)C2CC2)cc2cc(C(F)F)nnc12 [Example 1128]
33 | < 200 nM | < 500 nM |  | COc1cc(C(=O)NC[C@](O)(c2cc3c(c(-c4ccc(F)c(Cl)c4)n2)OC[C@@]3(C(N)=O)C(F)F)C2CC2)cc2cc(Cl)c(C)nc12 [Example 1033]
34 | > 200 nM | > 500 nM |  | COc1cc(C(=O)NCC(O)(c2cc3c(c(-c4cnc(C(F)(F)F)nc4)n2)OC[C@]3(C)C(N)=O)C(F)(F)F)cc2cn(C3CC3)nc12 (stereo partly drawn) [Example 899]
35 |  | > 500 nM | < 200 nM | Cc1cnc2c(OC(F)(F)F)cc(C(=O)NC[C@](O)(c3cc4c(c(-c5ccc(F)cc5)n3)OC[C@]4(C)C(N)=O)C(F)(F)F)cc2c1 [Example 501]
36 | > 200 nM | > 500 nM |  | COc1cc(C(=O)NC[C@](O)(c2cc3c(c(-c4ccc5c(c4)OC(F)(F)O5)n2)OC[C@]3(C(N)=O)C(F)F)C(F)(F)F)cc2cn(C3CC3)nc12 [Example 1034]
37 | < 200 nM | < 500 nM |  | COc1cc(C(=O)NC[C@](O)(c2cc3c(c(-c4c(F)ccc(Cl)c4F)n2)OC[C@]3(C)C(N)=O)C2CC2)cc2cn(C(F)F)nc12 [Example 1164]
38 | < 200 nM | < 500 nM |  | COc1cc(C(=O)NC[C@](O)(c2nc(-c3cc(Cl)c(F)cc3F)c3c(c2Cl)[C@@](C)(C(N)=O)CO3)C2CC2)cc2cn(C3CC3)nc12 [Example 1081]
39 | < 200 nM | < 500 nM |  | COc1cc(C(=O)NC[C@](O)(c2cc3c(c(-c4ccc(F)cc4)n2)OC[C@]3(C)C(N)=O)C2CC2)cc2cc(Br)cnc12 [Example 1125]
40 | > 200 nM | > 500 nM |  | COc1cc(C(=O)NC[C@](O)(c2cc3c(c(-c4ccc5c(c4)C(F)(F)C(=O)N5)n2)OC[C@]3(C)C(N)=O)C(F)(F)F)cc2cn(C3CC3)nc12 [Example 995]
41 |  | > 500 nM | > 200 nM | C[C@]1(C(N)=O)COc2c1cc([C@@](O)(CNC(=O)c1ccnc3nccn13)C(F)(F)F)nc2-c1ccc(F)cc1 [Example 489]
42 |  | < 500 nM | < 200 nM | C[C@]1(C(N)=O)COc2c1cc([C@@](O)(CNC(=O)c1cc(OC3CC3)n3nc(C4CC4)cc3c1)C1CC1)nc2-c1ccc(F)c(Cl)c1 [Example 491]
43 |  | > 500 nM | < 200 nM | COc1cc(C(=O)NC[C@](O)(c2cc3c(c(-c4ccc(F)cc4Cl)n2)OC[C@]3(C)C(N)=O)C(F)(F)F)cc2cc(C(F)(F)F)cnc12 [Example 516]
44 | < 200 nM | > 500 nM |  | COc1cc(C(=O)NC[C@](O)(c2cc3c(c(-c4ccc(F)cc4)n2)OC[C@]3(C)C(N)=O)C(F)(F)F)cc2c(C)onc12 [Example 888]
45 |  | > 500 nM | < 200 nM | CC[C@](O)(CNC(=O)c1cc(OC)c2nn(C3CC3)cc2c1)c1cc2c(c(-c3ccc(F)cc3)n1)OC[C@]2(C)C(N)=O [Example 642]
